Measured values: patent US5110935A, “New compounds which are active against the tissue forms of malaria and method of preparation” (Ire-Celltarg, S.A., priority 1988, dated 1992)
Values joined by “and” are separate entries in the source; they are usually repeats but may differ in a detail not shown here. Equal entries are not always repeated. Where two headings read alike, the source gives them in different places.

Experiments:
[1] = system: human erythrocytes; conditions: for Concentration combined with erythrocytes (% initial concentration): human red cells 10^9/ml, 100 μg/ml; for Accumulation in erythrocytes: not told
Protocol: Fresh human blood (A+) on CPDA is washed twice in RPMI medium containing 20 mM glucose at pH 7.4, and then resuspended in the same medium at 37° C. to obtain a 20% suspension of red cells (2×10^9 erythrocytes/ml). To 1 ml of this suspension, 1 ml of a solution of PQ or derivatives at a concentration of 0.250 mM in the same medium at 37° C. is added.
After different incubation times at 37° C., 0.5 ml of sample is withdrawn and then transferred to an Eppendorf tube containing 0.4 ml of silicone oil (Merck, density 1.06 g/ml).
After centrifugation for 30 seconds at 12,000 g, the supernatant and the silicone oil are removed, while the cells in the pellet are lyzed by adding 0.5 ml of water. The quinoline compound present in combination with the cell lysate is then extracted by precipitation of the cell proteins with acetonitrile (0.5 ml) and thereafter analyzed by HPLC under the standard conditions.
The intracellular concentration of quinoline derivative is obtained by subtracting the concentration of compound present in the extracellular medium from the total concentration in the cell lysate. The contaminating extracellular volume is measured using tritiated inulin.

[2] = Stability in the presence of fetal calf serum; type: in vitro ADME
Protocol: The influence of serum on the stability of primaquine (PQ) and its derivatives is determined by incubating these compounds at 37° C. at a concentration of 100 μg/ml in 95% fetal calf serum (FCS, Flow Laboratories) or human serum and phosphate-buffered saline (0.15 M PBSA, pH 7.2) as a control. All the solutions are sterilized by filtration on a Millipore filter (Millex GV) of porosity 0.20 μm.
At interval of time, 1-ml samples are withdrawn and the serum proteins are then extracted from them by precipitation with acetonitrile. For this purpose, an identical volume of acetonitrile is added to each sample. After vigorous mixing in a Vortex mixer, the samples are left for 1 hour at 4° C. and protected from light and then centrifuged for 5 minutes at 12,000 g. The supernatants are collected and then analyzed by HPLC (20- to 50-μl aliquot) under the standard conditions.
The results for the stability of primaquine and its two derivatives in the presence of fetal calf serum are recorded in Table 1; the results are expressed as a % of the initial concentration (time 0) after extraction.
^a : The compounds are incubated at 37° C. in the presence of
fetal calf serum (95% final) and then analyzed by spectrophotometry after
(§1) ^b : The results represent the relative concentration of primaquine
(PQ) and of derivatives (PQX) in terms of the incubation time, expressed
as a percentage of the initial concentration (time 0) after extraction

[3] = Acute toxicity in mice after a single i.v. administration; type: in vivo; conditions: mouse, in vivo, iv, single i.v., mg PQ diphosphate equivalent/kg; for MTD: weight loss not exceeding 5% during 5 days, read-out: Maximum tolerated dose (MTD)
Protocol: (§2) The acute toxicity in terms of a single administered dose is determined on female Swiss OF1 mice weighing 22 to 25 g. A series of dilutions of each compound is injected intravenously into groups of 10 mice (0.1 ml per 10 g of weight).
(§3) The lethal dose for 50% of mice (LD50) is determined by linear regression of the logits of the percentage of surviving animals as a function of the logarithm of the dose injected (in mg PQ diphosphate equivalent/kg) (Logit Weighted Transformation, Berkson J., 1953; J. Am. Stat. Assoc. 48, 565-599).
(§4) ^a : The products are administered i.v. to groups of 10 female Swiss
(§5) ^b : Maximum tolerated dose (MTD), defined as the highest dose
(§6) The acute toxicity in terms of a single administered dose is determined under the same conditions and according the protocol of Example 3.

[4] = system: female Swiss OF1 mice; test: as above; type: in vivo; conditions: for Maximum tolerated dose (MTD): weight loss not exceeding 5% during 5 days
Protocol: as §2, §3, §4, §5, §6

[5] = system: human red cells; test: Methemoglobin production in human red cells; type: cell-based; conditions: 1 hour, 37° C.
Protocol: (§15) Two important toxic effects of PQ were assessed on the two derivatives: the hemolytic effect and the conversion of hemoglobin to methemoglobin.
(§16) A+ blood is washed twice in 0.15M phosphatebuffered saline at pH 7.4 containing 20 mM glucose (GPBS), and then resuspended at a concentration of 50% in the same buffer. To this suspension, an equal volume of compound dissolved in GPBS at different concentrations (test), or of GPBS (control) is added. The final hematocrit of the suspension is 25%. After 60 minutes' incubation at 37° C., the concentration of hemoglobin and methemoglobin is determined on the total suspension, and the concentration of hemoglobin present in the supernatant after centrifugation (extracellular hemoglobin) is determined, by the cyanmethemoglobin and benzidine methods (Fairbanks V.F., 1976, in "Fundamentals of Clinical Chemistry, M.W. Tietz Editors, Saunders").

[6] = Hemolytic effect on human red cells; type: cell-based; conditions: human, red cells, pH 7.4, 1 hour, 37° C., read-out: Hemolysis (% of total hemoglobin concentration); for hemolysis at 1 h, 1000 µM: 1 mM; for hemolysis at 1 h, 5000 µM: 5 mM
Protocol: as §15, §16

[7] = system: Plasmodium berghei; test: Therapeutic index in mice; type: in vivo, P. berghei; conditions: i.v.; for Therapeutic index (TI): ratio of LD50 to CPD50, mice
Text: The therapeutic index is defined as the ratio of the toxicity, expressed as LD50, to the therapeutic activity, expressed as CPD50, in mice.
^b : The therapeutic index (TI) is the ratio of LD50 to […]

[8] = Hydrolysis in the presence of lysosomal enzymes; type: in vitro ADME, rat; conditions: rat; for remaining at 1 h / remaining at 2 h / remaining at 3 h / remaining at 6 h / remaining at 24 h: liver lysosomal enzymes, pH 4.5, 37° C., read-out: Relative concentration of compound (% of initial concentration)
Protocol: (§7) The compounds, at a final concentration of 15 μg/ml, are incubated in 50 mM acetate buffer, pH 4.5, at 37° C. in the presence of 5 mM cysteine and a lysosomal enzyme fraction (0.15 mg protein/ml) purified from rat liver.
(§8) The purified lysosomal fraction is prepared according to the method described by Trouet (1974, Meth. Enzymol., 31, 323-334).
(§9) At intervals of time, corresponding samples are taken from the incubation. The enzyme reaction is stopped by adding 10 μl of 10M HCl per ml of sample. A volume of 20 μl is withdrawn and analyzed directly by HPLC under the standard conditions.
(§10) ^a : The compounds are incubated at pH 4.5 in the presence of
(§11) lysosomal enzymes (0.15 mg protein/ml) and 5 mM cysteine, and then
(§12) analyzed by spectrophotometry after HPLC. The initial purity of the
as §1
(§13) (PQ) and derivatives (PQX) in terms of the incubation time, expressed as
(§14) percentage of the initial concentration (time 0) after extraction.

[9] = system: lysosomal enzymes; test: Hydrolysis in the presence of lysosomal enzymes; type: in vitro ADME, rat; conditions: for Relative concentration of compound (% of initial concentration): pH 4.5, 37° C., 0 h
Protocol: as §7, §8, §9, §10, §11, §12, §1, §13, §14

[10] = fetal calf serum 95%, 37° C., 0 h
[11] = single i.v., mg PQ diphosphate equivalent/kg

SMILES: COc1cc(NC(C)CCCN)c2ncccc2c1 (centres unmarked) [Primaquine, 6-methoxy-8-(4-amino-1-methylbutylamino)quinoline, reference compound]
- Time for which concentration in red cells is maintained [1]: at least one hour
- Concentration combined with erythrocytes (% initial concentration) ([1]; 5 min): 17.7 (1.2) %
- Concentration combined with erythrocytes (% initial concentration) ([1]; 5 min, listed as PQ): 18%
- Concentration combined with erythrocytes (% initial concentration) ([1]; 10 min): 18.0 (3.4) %
- Concentration combined with erythrocytes (% initial concentration) ([1]; 60 min): 18.8 (0.2) %
- Accumulation in erythrocytes [1]: taken up rapidly by erythrocytes
- remaining at 1 h ([2]; bovine, fetal calf serum, fetal calf serum 95%, 37° C., 1 h, read-out: Relative concentration of compound (% of initial concentration)): 98%
- remaining at 2 h ([2]; bovine, fetal calf serum, fetal calf serum 95%, 37° C., 2 h, read-out: Relative concentration of compound (% of initial concentration)): 87%
- remaining at 3 h ([2]; bovine, fetal calf serum, fetal calf serum 95%, 37° C., 3 h, read-out: Relative concentration of compound (% of initial concentration)): 77%
- remaining at 6 h ([2]; bovine, fetal calf serum, fetal calf serum 95%, 37° C., 6 h, read-out: Relative concentration of compound (% of initial concentration)): 34%
- Relative concentration of compound (% of initial concentration) [2, 10]: 100%
- Second HPLC peak (Y) from primaquine [2, 10]: 0%
- Second HPLC peak (Y) from primaquine ([2]; fetal calf serum 95%, 37° C., 1 h): 0%
- Second HPLC peak (Y) from primaquine ([2]; fetal calf serum 95%, 37° C., 2 h): 5%
- Second HPLC peak (Y) from primaquine ([2]; fetal calf serum 95%, 37° C., 3 h): 10%
- Second HPLC peak (Y) from primaquine ([2]; fetal calf serum 95%, 37° C., 6 h): 11%
- Second HPLC peak (Y) from primaquine ([2]; fetal calf serum 95%, 37° C., 24 h): 5%
- Relative concentration of compound (% of initial concentration) ([2]; fetal calf serum 95%, 37° C., 24 h, 1440 min): 2%
- Relative concentration of compound (% of initial concentration) ([2]; fetal calf serum 95%, 37° C., 24 h, listed as primaquine, 1440 min): 7%
- Second peak (Y), maximum ([2]; fetal calf serum, after 2 hours' incubation): ≤ 10%
- Stability in the presence of serum ([2]; 37° C.): unstable
- MTD [3]: 24 mg/kg
- Maximum tolerated dose (MTD) [4, 11]: 24 (2.1) mg/kg
- Methemoglobin (% of total hemoglobin concentration) ([5]; 1 mM): 1.2 (0.5) %
- Methemoglobin (% of total hemoglobin concentration) ([5]; 2 mM): 3.4 (1.8) %
- Methemoglobin (% of total hemoglobin concentration) ([5]; 5 mM): 5.8 (0.2) %
- Methemoglobin (% of total hemoglobin concentration) ([5]; 10 mM): 11.5 (4.2) %
- Methemoglobin (% of total hemoglobin concentration) ([5]; 10 mM, listed as PQ): 11.5%
- hemolysis at 1 h, 1000 µM [6]: 2.1%
- hemolysis at 1 h, 2000 µM ([6]; 2 mM): 2.3%
- hemolysis at 1 h, 5000 µM [6]: 2.8%
- hemolysis at 1 h, 10000 µM ([6]; 10 mM): 4.7%
- Therapeutic index (TI) [7]: 1.7
- remaining at 1 h [8]: 94%
- remaining at 2 h [8]: 96%
- remaining at 3 h [8]: 84%
- remaining at 6 h [8]: 87%
- remaining at 24 h [8]: 68%
- Relative concentration of compound (% of initial concentration) [9]: 100%

SMILES: COc1cc(NC(C)CCCNC(=O)CC[C@H](N)C(=O)O)c2ncccc2c1 (stereo partly drawn) [gGLU-PQ, N-(γ-L-glutamyl)primaquine]
- Accumulation in erythrocytes [1]: not accumulated in erythrocytes
- remaining at 1 h ([2]; bovine, fetal calf serum 95%, 37° C., 1 h, read-out: Relative concentration of compound (% of initial concentration)): 96%
- metabolised at 1 h ([2]; bovine, fetal calf serum 95%, 37° C., 1 h, read-out: Relative concentration of primaquine (PQ) from derivative): 3%
- remaining at 2 h ([2]; bovine, fetal calf serum 95%, 37° C., 2 h, read-out: Relative concentration of compound (% of initial concentration)): 95%
- metabolised at 2 h ([2]; bovine, fetal calf serum 95%, 37° C., 2 h, read-out: Relative concentration of primaquine (PQ) from derivative): 4%
- remaining at 3 h ([2]; bovine, fetal calf serum 95%, 37° C., 3 h, read-out: Relative concentration of compound (% of initial concentration)): 94%
- metabolised at 3 h ([2]; bovine, fetal calf serum 95%, 37° C., 3 h, read-out: Relative concentration of primaquine (PQ) from derivative): 4%
- remaining at 6 h ([2]; bovine, fetal calf serum 95%, 37° C., 6 h, read-out: Relative concentration of compound (% of initial concentration)): 83%
- metabolised at 6 h ([2]; bovine, fetal calf serum 95%, 37° C., 6 h, read-out: Relative concentration of primaquine (PQ) from derivative): 4%
- remaining at 24 h ([2]; bovine, fetal calf serum 95%, 37° C., 24 h, read-out: Relative concentration of compound (% of initial concentration)): 51%
- metabolised at 24 h ([2]; bovine, fetal calf serum 95%, 37° C., 24 h, read-out: Relative concentration of primaquine (PQ) from derivative): 4%
- Duration of stability in serum ([2]; fetal calf serum): at least 3 hours
- Relative concentration of compound (% of initial concentration) [2, 10]: 98 (1) %
- Relative concentration of primaquine (PQ) from derivative [2, 10]: 2 (1) %
- Stability in the presence of serum ([2]; 37° C.): a gradual decrease in the relative concentration is observed after 6 hours' incubation
- LD50 [3]: 169 mg/kg
- MTD [3]: 117 mg/kg
- Fold less toxic than PQ ([4]; mice, i.v.): at least 5 -fold
- LD50 [4, 11]: 169 (9) mg/kg
- Maximum tolerated dose (MTD) [4, 11]: 117 (13) mg/kg
- Methemoglobin (% of total hemoglobin concentration) ([5]; 1 mM): 1.4 (0.0) %
- Methemoglobin (% of total hemoglobin concentration) ([5]; 5 mM): 5.3 (0.0) %
- hemolysis at 1 h, 1000 µM [6]: 0.27%
- hemolysis at 1 h, 5000 µM [6]: 0.58%
- Therapeutic index, fold higher than that of PQ ([7]; mice): at least 11 -fold
- Therapeutic index (TI) [7]: > 19 and 19.4
- metabolised at 1 h ([8]; liver lysosomal enzyme fraction, pH 4.5, 1 h, read-out: Relative concentration of primaquine (PQ) from derivative): 0%
- metabolised at 2 h ([8]; liver lysosomal enzyme fraction, pH 4.5, 2 h, read-out: Relative concentration of primaquine (PQ) from derivative): 0%
- metabolised at 3 h ([8]; liver lysosomal enzyme fraction, pH 4.5, 3 h, read-out: Relative concentration of primaquine (PQ) from derivative): 0%
- metabolised at 6 h ([8]; liver lysosomal enzyme fraction, pH 4.5, 6 h, read-out: Relative concentration of primaquine (PQ) from derivative): 0%
- metabolised at 24 h ([8]; liver lysosomal enzyme fraction, pH 4.5, 24 h, read-out: Relative concentration of primaquine (PQ) from derivative): 0%
- remaining at 1 h [8]: 104%
- remaining at 2 h [8]: 95%
- remaining at 3 h [8]: 98%
- remaining at 6 h [8]: 101%
- remaining at 24 h [8]: 105%
- Relative concentration of primaquine (PQ) from derivative ([9]; pH 4.5, 0 h): 0%
- Relative concentration of compound (% of initial concentration) [9]: 100%
